Earlier results, collected in patent publication US7307164B2, “β-amino heterocyclic dipeptidyl peptidase inhibitors for the treatment or prevention of diabetes” (Merck & Co., Inc., priority 2002, dated 2007).

Columns and labels:
[1] = test system: cardiac allograft; conditions: rats; survival from day 7 to day 14
[2] = test system: hematopoiesis; conditions: mouse, cyclophosphamide-induced neutropenia
[3] = target: T1, DP-IV (Homo sapiens, UniProt P27487)
T1 construct: GRF is rapidly degraded in plasma to GRF[3-44]
T1 sequence (P27487 whole entry): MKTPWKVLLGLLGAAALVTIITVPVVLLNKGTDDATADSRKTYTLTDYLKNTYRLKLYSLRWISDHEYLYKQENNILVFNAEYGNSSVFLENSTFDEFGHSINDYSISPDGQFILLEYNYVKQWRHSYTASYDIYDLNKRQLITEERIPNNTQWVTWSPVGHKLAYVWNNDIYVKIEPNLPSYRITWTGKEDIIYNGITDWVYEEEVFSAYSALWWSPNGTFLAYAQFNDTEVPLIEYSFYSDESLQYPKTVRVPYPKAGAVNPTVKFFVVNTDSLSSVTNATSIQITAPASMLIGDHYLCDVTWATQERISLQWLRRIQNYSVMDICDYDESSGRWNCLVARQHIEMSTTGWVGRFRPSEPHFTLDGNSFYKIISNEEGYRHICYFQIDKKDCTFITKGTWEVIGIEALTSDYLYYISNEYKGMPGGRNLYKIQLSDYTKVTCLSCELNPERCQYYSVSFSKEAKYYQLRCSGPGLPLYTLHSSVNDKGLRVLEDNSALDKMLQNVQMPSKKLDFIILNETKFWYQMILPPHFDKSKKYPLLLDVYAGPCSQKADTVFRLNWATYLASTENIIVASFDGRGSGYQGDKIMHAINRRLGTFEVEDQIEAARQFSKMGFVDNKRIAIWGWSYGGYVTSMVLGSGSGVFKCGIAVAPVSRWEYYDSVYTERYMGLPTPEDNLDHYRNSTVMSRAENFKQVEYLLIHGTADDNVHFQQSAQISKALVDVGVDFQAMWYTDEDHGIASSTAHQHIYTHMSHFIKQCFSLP

CC(C)N1CCC(c2ccccc2)(c2ccccc2)CC1 [Prodipine, Pro-Pro-diphenyl-phosphonate]
cardiac allograft survival [1]: double cardiac allograft survival

CC(C)[C@H](N)C(=O)N1CCC[C@H]1B(O)O [Val-Boro-Pro]
hematopoiesis [2]: stimulated hematopoiesis

CC[C@H](C)[C@H](N)C(=O)N1CCC[C@H]1C(=O)N[C@H](C(=O)O)[C@@H](C)CC [diprotin A]
degradation of GRF in plasma to GRF[3-44] [3]: prevented
